Key:
Assay in all cases: relative viability (nuclei count vs DMSO), 5 days (fraction); higher = more cells survive
Entinostat + Linsitinib = compound: Nc1ccccc1NC(=O)c1ccc(CNC(=O)OCc2cccnc2)cc1 [Entinostat] + C[C@]1(O)C[C@@H](c2nc(-c3ccc4ccc(-c5ccccc5)nc4c3)c3c(N)nccn32)C1 [Linsitinib] (partner 1 µM)
In short: (§1)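 A single step with final 0.05% Triton X-100, 1% formaldehyde and 1 ug/ml Hoechst fixed the cells and stained nuclei 5 days after treatment. Lung cancer cell lines in 1536-well plates had been treated by pin tool the day after seeding with one drug alone or a fixed anchor-drug dose plus five library-drug doses (not always all listed) in √10 steps, and nuclei were counted on 4× images. Relative viability is the ratio of nuclei in treated wells to nuclei in vehicle wells, taken as the median of duplicate plates.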

Entinostat + Tozasertib = compound: Nc1ccccc1NC(=O)c1ccc(CNC(=O)OCc2cccnc2)cc1 [Entinostat] + Cc1cc(Nc2cc(N3CCN(C)CC3)nc(Sc3ccc(NC(=O)C4CC4)cc3)n2)n[nH]1 [Tozasertib] (partner 0.1 µM)
In short: as §1

[1] = compound: C1COCCN1C2=NC(=NC3=C2OC4=C3C=CC=N4)C5=CC(=CC=C5)NC(=O)C6=CN=C(C=C6)N + C[C@@H](Oc1cc(-c2cnn(C3CCNCC3)c2)cnc1N)c1c(Cl)ccc(F)c1Cl [Crizotinib] (partner 1 µM)
In short: as §1

SGI-1776 + Lapatinib = compound: CN1CCC(CNc2ccc3ncc(-c4cccc(OC(F)(F)F)c4)n3n2)CC1 [SGI-1776] + CS(=O)(=O)CCNCc1ccc(-c2ccc3ncnc(Nc4ccc(OCc5cccc(F)c5)c(Cl)c4)c3c2)o1 [Lapatinib] (partner 2 µM)
In short: as §1

Cell Line | relative viability (Entinostat + Linsitinib; first compound 0.02 µM) | relative viability (Entinostat + Linsitinib; first compound 0.06325 µM) | relative viability (Entinostat + Linsitinib; first compound 0.2 µM) | relative viability (Entinostat + Linsitinib; first compound 0.6325 µM) | relative viability (Entinostat + Linsitinib; first compound 2 µM) | relative viability (Entinostat + Tozasertib; first compound 0.02 µM) | relative viability (Entinostat + Tozasertib; first compound 0.06325 µM) | relative viability (Entinostat + Tozasertib; first compound 0.2 µM) | relative viability (Entinostat + Tozasertib; first compound 0.6325 µM) | relative viability (Entinostat + Tozasertib; first compound 2 µM) | relative viability ([1]; first compound 0.02 µM) | relative viability ([1]; first compound 0.06325 µM) | relative viability ([1]; first compound 0.2 µM) | relative viability ([1]; first compound 0.6325 µM) | relative viability ([1]; first compound 2 µM) | relative viability (SGI-1776 + Lapatinib; first compound 0.08 µM) | relative viability (SGI-1776 + Lapatinib; first compound 0.8 µM) | relative viability (SGI-1776 + Lapatinib; first compound 2.53 µM) | relative viability (SGI-1776 + Lapatinib; first compound 8 µM)
NCI-H441 | 0.483 | 0.494 | 0.524 | 0.262 | 0.13 | 0.593 | 0.483 | 0.425 | 0.275 | 0.224 | 0.71 | 0.679 | 0.688 | 0.923 | 0.415 |  |  |  | 
NCI-H522 |  |  |  |  |  | 0.576 | 0.509 | 0.516 | 0.48 | 0.371 |  |  |  |  |  |  |  |  | 
NCI-H1299 | 0.962 | 0.914 | 0.95 | 0.754 | 0.601 |  |  |  |  |  | 0.942 | 0.95 | 0.937 | 0.958 | 0.669 | 1.02 | 0.991 | 0.99 | 0.95
NCI-H1395 | 1.1 | 1.13 | 1.01 | 0.885 | 0.594 | 0.668 | 0.721 | 0.696 | 0.496 | 0.47 |  |  |  |  |  | 1.16 | 1.04 | 1.07 | 0.781
NCI-H1563 | 1.14 | 1.2 | 1.09 | 0.897 | 0.769 |  |  |  |  |  | 0.778 | 0.833 | 0.729 | 0.762 | 0.728 | 0.869 | 0.939 | 1.02 | 0.825
NCI-H1623 |  |  |  |  |  | 0.498 | 0.442 | 0.373 | 0.352 | 0.305 |  |  |  |  |  |  |  |  | 
NCI-H1648 |  |  |  |  |  | 0.566 | 0.483 | 0.414 | 0.411 | 0.341 |  |  |  |  |  |  |  |  | 
NCI-H1650 |  |  |  |  |  | 0.336 | 0.366 | 0.332 | 0.223 | 0.204 | 1 | 1.05 | 0.94 | 1.06 | 0.601 | 0.877 | 0.983 | 0.809 | 0.343
NCI-H1703 | 0.883 | 0.805 | 0.857 | 0.919 | 0.582 |  |  |  |  |  | 0.357 | 0.731 | 0.506 | 0.401 | 0.416 | 1.3 | 0.922 | 0.608 | 0.257
NCI-H1792 | 0.476 | 0.502 | 0.392 | 0.276 | 0.153 |  |  |  |  |  | 1.2 | 0.946 | 1.01 | 0.767 | 0.382 | 0.908 | 0.988 | 0.867 | 0.756
NCI-H1793 | 0.964 | 0.841 | 0.834 | 0.698 | 0.364 | 0.309 | 0.308 | 0.284 | 0.205 | 0.175 |  |  |  |  |  | 0.701 | 0.749 | 0.668 | 0.974
NCI-H2170 |  |  |  |  |  | 0.685 | 0.677 | 0.461 | 0.391 | 0.172 | 1.31 | 1.37 | 1.25 | 1.12 | 0.668 | 0.263 | 0.269 | 0.275 | 0.275
NCI-H2342 |  |  |  |  |  | 0.465 | 0.429 | 0.377 | 0.372 | 0.333 |  |  |  |  |  |  |  |  | 
SW 900 |  |  |  |  |  | 0.573 | 0.62 | 0.515 | 0.282 | 0.206 |  |  |  |  |  |  |  |  | 
